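GI50 is the concentration that inhibits growth by half. TGI: concentration producing complete growth inhibition.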
Experiments:
Assay in all cases: NCI anticancer screen, dose series, 384-well format
[1] = test system: ACHN renal
[2] = test system: SW-620 colon
[3] = test system: UO-31 renal
[4] = test system: NCI-H460 NSCLC
[5] = test system: MDA-MB-435 melanoma
[6] = test system: HT29 colon
[7] = test system: SF-539 CNS
[8] = test system: NCI/ADR-RES ovarian
[9] = test system: LOX IMVI melanoma
[10] = test system: SK-OV-3 ovarian
[11] = test system: MDA-MB-468 breast
[12] = test system: NCI-H322M lung
[13] = test system: OVCAR-4 ovarian
[14] = test system: HS 578T breast
[15] = test system: DU-145 prostate
[16] = test system: A549 NSCLC
[17] = test system: OVCAR-3 ovarian
[18] = test system: HOP-62 NSCLC
[19] = test system: OVCAR-8 ovarian
[20] = test system: NCI-H23 lung
[21] = test system: NCI-H226 lung
[22] = test system: RPMI-8226 leukemia
[23] = test system: KM12 colon
[24] = test system: HCC-2998 colon
[25] = test system: SR leukemia
[26] = test system: SNB-19 CNS
[27] = test system: SF-268 CNS
[28] = test system: T-47D breast
[29] = test system: TK-10 renal
[30] = test system: CAKI-1 renal
[31] = test system: IGROV1 ovarian
[32] = test system: MDA-MB-231 breast
[33] = test system: MOLT-4 leukemia
[34] = test system: EKVX NSCLC
[35] = test system: HL-60(TB) leukemia
[36] = test system: HOP-92 NSCLC
[37] = test system: SNB-75 CNS
[38] = test system: SN12C renal
[39] = test system: K-562 leukemia
[40] = test system: 786-0 renal
[41] = test system: COLO 205 colon
[42] = test system: A498 renal
[43] = test system: SK-MEL-5 melanoma
[44] = test system: SK-MEL-28 melanoma
[45] = test system: UACC-257 melanoma
[46] = test system: MALME-3M melanoma
[47] = test system: M14 melanoma
[48] = test system: BT-549 breast
[49] = test system: HCT-116 colon
[50] = test system: PC-3 prostate
[51] = test system: SF-295 CNS
[52] = test system: RXF 393 renal
[53] = test system: NCI-H522 lung
[54] = test system: U251 glioblastoma
[55] = test system: HCT-15 colon
[56] = test system: CCRF-CEM leukemia
[57] = test system: MCF7 breast
[58] = test system: UACC-62 melanoma
[59] = test system: SK-MEL-2 melanoma

C[C@@H](Nc1cc(F)cc(F)c1)c1cc(C(=O)N(C)C)cc2c(=O)cc(N3CCOCC3)oc12
GI50 [1]: 6.68 µM | TGI [1]: > 100 µM | GI50 [2]: 61.4 µM | TGI [2]: > 100 µM | GI50 [3]: 6.38 µM | TGI [3]: > 100 µM | GI50 [4]: 4.5 µM | TGI [4]: > 100 µM | GI50 [5]: 87 µM | TGI [5]: > 100 µM | GI50 [6]: 6.45 µM | TGI [6]: > 100 µM | GI50 [7]: 12 µM | TGI [7]: > 100 µM | GI50 [8]: > 100 µM | TGI [8]: > 100 µM | GI50 [9]: 17 µM | TGI [9]: > 100 µM | GI50 [10]: 3.48 µM | TGI [10]: > 100 µM | GI50 [11]: 1.59 µM | TGI [11]: 12.7 µM | GI50 [12]: 8.36 µM | TGI [12]: 78 µM | GI50 [13]: > 100 µM | TGI [13]: > 100 µM | GI50 [14]: 0.902 µM | TGI [14]: 32.8 µM | GI50 [15]: 17.4 µM | TGI [15]: > 100 µM | GI50 [16]: 7.85 µM | TGI [16]: > 100 µM | GI50 [17]: 0.465 µM | TGI [17]: 18 µM | GI50 [18]: 28.8 µM | TGI [18]: > 100 µM | GI50 [19]: 10.3 µM | TGI [19]: > 100 µM | GI50 [20]: 31.8 µM | TGI [20]: > 100 µM | GI50 [21]: 67.6 µM | TGI [21]: > 100 µM | GI50 [22]: 16.6 µM | TGI [22]: 51.1 µM | GI50 [23]: 23.5 µM | TGI [23]: > 100 µM | GI50 [24]: 5.66 µM | TGI [24]: 55.6 µM | GI50 [25]: 0.385 µM | TGI [25]: 16.6 µM | GI50 [26]: 68.6 µM | TGI [26]: > 100 µM | GI50 [27]: 13.1 µM | TGI [27]: > 100 µM | GI50 [28]: 0.591 µM | TGI [28]: 9.05 µM | GI50 [29]: 3.57 µM | TGI [29]: > 100 µM | GI50 [30]: 0.25 µM | TGI [30]: > 100 µM | GI50 [31]: 0.392 µM | TGI [31]: 3.29 µM | GI50 [32]: 49.1 µM | TGI [32]: > 100 µM | GI50 [33]: 1.11 µM | TGI [33]: 10.8 µM | GI50 [34]: 2.4 µM | TGI [34]: > 100 µM | GI50 [35]: 0.599 µM | TGI [35]: 9.14 µM | GI50 [36]: 0.627 µM | TGI [36]: > 100 µM | GI50 [37]: 0.762 µM | TGI [37]: > 100 µM | GI50 [38]: 0.215 µM | TGI [38]: > 100 µM | GI50 [39]: 55.1 µM | TGI [39]: > 100 µM | GI50 [40]: 1.24 µM | TGI [40]: > 100 µM | GI50 [41]: 13.4 µM | TGI [41]: > 100 µM | GI50 [42]: 0.0447 µM | TGI [42]: 1.31 µM | GI50 [43]: 11.3 µM | TGI [43]: > 100 µM | GI50 [44]: 1.39 µM | TGI [44]: > 100 µM | GI50 [45]: 17.2 µM | TGI [45]: > 100 µM | GI50 [46]: 1.13 µM | TGI [46]: 63.1 µM | GI50 [47]: 20.4 µM | TGI [47]: > 100 µM | GI50 [48]: 0.341 µM | TGI [48]: > 100 µM | GI50 [49]: 10.5 µM | TGI [49]: > 100 µM | GI50 [50]: 0.261 µM | TGI [50]: > 100 µM | GI50 [51]: 0.611 µM | TGI [51]: 16 µM | GI50 [52]: 0.182 µM | TGI [52]: 8.24 µM | GI50 [53]: 23.7 µM | TGI [53]: > 100 µM | GI50 [54]: 39.2 µM | TGI [54]: > 100 µM | GI50 [55]: 25.5 µM | TGI [55]: > 100 µM | GI50 [56]: 13.4 µM | TGI [56]: 57.9 µM | GI50 [57]: 0.666 µM | TGI [57]: > 100 µM | GI50 [58]: 0.981 µM | TGI [58]: 24.7 µM

Cc1sc(C(=O)c2cncnc2N[C@@H]2C[C@H](COS(N)(=O)=O)[C@@H](O)C2)cc1[C@@H]1NCCc2ccc(Cl)cc21
GI50 [1]: 12.5 µM | TGI [1]: 25.3 µM | GI50 [3]: 10.6 µM | TGI [3]: 22.6 µM | GI50 [5]: < 0.01 µM | TGI [5]: 0.0183 µM | GI50 [8]: 32.7 µM | TGI [8]: > 100 µM | GI50 [11]: < 0.01 µM | TGI [11]: 0.0172 µM | GI50 [13]: 0.029 µM | TGI [13]: 0.081 µM | GI50 [16]: 0.0744 µM | TGI [16]: 17.2 µM | GI50 [18]: 0.321 µM | TGI [18]: 19.3 µM | GI50 [19]: 0.186 µM | TGI [19]: 17.5 µM | GI50 [21]: 0.16 µM | TGI [21]: 16.3 µM | GI50 [22]: < 0.01 µM | GI50 [25]: < 0.01 µM | GI50 [29]: 14.5 µM | TGI [29]: 27.7 µM | GI50 [33]: < 0.01 µM | TGI [33]: 0.0186 µM | GI50 [35]: 0.0111 µM | TGI [35]: 0.0233 µM | GI50 [36]: 0.0188 µM | TGI [36]: 10.1 µM | GI50 [38]: 0.133 µM | TGI [38]: 21.4 µM | GI50 [39]: 0.0548 µM | TGI [39]: 13.1 µM | GI50 [40]: 0.453 µM | TGI [40]: 20.5 µM | GI50 [41]: 0.0132 µM | TGI [41]: 0.0756 µM | GI50 [42]: 0.561 µM | TGI [42]: 18.7 µM | GI50 [43]: 0.0565 µM | TGI [43]: 0.239 µM | GI50 [47]: 0.0322 µM | TGI [47]: 0.214 µM | GI50 [59]: < 0.01 µM | TGI [59]: 0.0123 µM | GI50 [49]: 0.0282 µM | TGI [49]: 17.4 µM | GI50 [50]: 0.0352 µM | TGI [50]: 19.2 µM | GI50 [52]: 0.0104 µM | TGI [52]: 0.0578 µM | GI50 [53]: < 0.01 µM | TGI [53]: 0.0151 µM | GI50 [55]: 2.5 µM | TGI [55]: 14.2 µM | GI50 [56]: < 0.01 µM | TGI [56]: 0.0148 µM | GI50 [57]: < 0.01 µM | TGI [57]: 15.3 µM | GI50 [58]: 0.0198 µM | TGI [58]: 17.7 µM

Reference: PubChem BioAssay (NCI)
